The source of these data is patent US12503483B2, “Gemcitabine amphiphile prodrugs” (NANOMED HOLDINGS PTY LTD, priority 2018, dated 2025).

One experiment relates to BxPC3 cell line. Briefly: MTS cytotoxicity assay, 72 hours. It counts as cell-based. As to conditions: Homo sapiens, BXPC-3, BxPC3, 72 hours. As for the experimental part: (§1) The cytotoxicity of gemcitabine nanoparticles dispersion made from gemcitabine amphiphiles in the presence or absence of DMPC-cholesterol was evaluated in comparison to gemcitabine alone in several pancreatic cell lines including CF Pac-1, BxPC3, Panc-1 and MIA PaCa-2, MCF7and CACO2 cell lines. The cell lines were exposed to media with varying concentrations of the treatments (100-0.001 μM) and incubated for 72 hours. Cell viability was determined using the MTS assay and was conducted in triplicate to derive the IC50 values.
(Formazan colour is commonly taken as a measure of viable cells.)

The subject of another experiment is CACO2 cell line. Briefly: MTS cytotoxicity assay, 72 hours. It counts as cell-based. The note with it: Homo sapiens, Caco-2, CACO2, 72 hours, prodrugs as nanoparticle dispersions. As for the experimental part: as §1
For experiment [1], the system named is CFPAC-1 cell line. Briefly: MTS cytotoxicity assay, 72 hours. It counts as cell-based. As to conditions: Homo sapiens, CFPAC-1, 72 hours, prodrugs as nanoparticle dispersions. The protocol: as §1
A further experiment has as its system MCF7 cell line. The experiment in a line: MTS cytotoxicity assay, 72 hours. It is filed as cell-based. As to conditions: Homo sapiens, MCF7, 72 hours, prodrugs as nanoparticle dispersions. The protocol: as §1
Another experiment deals with MIAPaCa-2 cell line. The experiment in a line: MTS cytotoxicity assay, 72 hours. The note with it: Homo sapiens, MIA PaCa-2, MIAPaCa-2, 72 hours. It counts as cell-based. The protocol:
as §1

For a further experiment, the system named is PANC-1 cell line. Briefly: MTS cytotoxicity assay, 72 hours. It counts as cell-based. The note with it: Homo sapiens, PANC-1, 72 hours. The protocol: as §1
Experiment [2] relates to CFPAC-1 cell line-derived xenograft. The experiment in a line: In vivo tumour inhibition, CFPAC-1 xenograft. On the set-up: species or system mice. As for the experimental part:
All treatments were administered via IV injection twice a week for four weeks. The amount of gemcitabine administered in the Gem nanoparticles was 4.45 mg/kg, which is an order of magnitude less than the ordinary dose used in clinic. The doses were equimolar with the gemcitabine control group in order to allow for a direct comparison of the anti-tumour efficacy between groups. The amount of total lipid injected was 1 mg/dose. Gemcitabine is administered intravenously at a dose of 1000 mg/m2 to treat pancreatic cancer in humans. The dose administered here is equivalent to 13.35 mg/m2 of gemcitabine being injected into humans; 1.33% of the clinical dose of gemcitabine in humans. In other studies, the amount of gemcitabine injected into mice in vivo studies has ranged from 7-100 mg/kg.
At the end of the study, the tumours were harvested.

Experiment [3] concerns CFPAC-1 cell line. The note with it: 72 hours; read-out: IC50 of gemcitabine against the CFPAC-1 cell line; cited from earlier work.

The structures appear in SMILES notation. Where two headings read alike, the source gives them in different places. A value given as a limit tells only on which side of the number the result lay.

Take `Nc1ccn([C@@H]2O[C@H](CO)[C@@H](O)C2(F)F)c(=O)n1` [Gemcitabine, 2′,2′-difluoro-2′-deoxycytidine]: the 50% inhibitory concentration (IC50) in the experiment on BxPC3 cell line was 22.5 nM; in the experiment with CACO2 cell line, 50 nM; with CFPAC-1 cell line [1], 65 nM; in the experiment with MCF7 cell line it was 6 nM; with MIAPaCa-2 cell line, 23 nM; with PANC-1 cell line it was above 100000 nM. Further, the IC50 in the experiment with CFPAC-1 cell line [3] was 6.1 to 33 nM. In addition, the “Tumour size trend over time” value in experiment [2] (4.45 mg/kg gemcitabine equimolar, IV twice a week for four weeks) is on record as “increased in size, however at a slower rate compared with the control PBS group”. For the same molecule, in experiment [2] (4.45 mg/kg gemcitabine equimolar, IV twice a week for four weeks, 34 days), the “Tumour volume as % of control tumour size” value is recorded as 54%. Besides, the “Average ex-vivo tumour weight, order of groups” value in experiment [2] (end of study, control vs nanoparticles p<0.05) is listed as “control group>Gemcitabine group>Gemcitabine nanoparticles”.

As a reminder, the IC50 is the point on the concentration scale where inhibition reaches its midpoint.
